Values after ≈ are worked out from the molar mass of the structure shown. Where two headings read alike, the source gives them in different places.
Assays:
[1] = system: Escherichia coli (ATCC 8739, Gram-negative); experiment: Minimum inhibitory concentration, microdilution assay; assay type: cell-based; conditions: for MIC: Escherichia coli, ATCC8739
Experimental: (§1) Staphylococcus aureus (ATCC 6538, Gram-positive), Escherichia coli (ATCC 8739, Gram-negative), Pseudomonas aeruginosa (Gram-negative), and Candida albicans (ATCC 10231, fungus) were used as representative microorganisms to challenge the antimicrobial functions of the imidazolium salts. All bacteria and fungus were stored frozen at −80° C., and were grown overnight at 37° C. in Mueller Hinton Broth (MHB) prior to experiments. Fungus was grown overnight at 22° C. in Yeast Mold (YM) broth. […] The plates were incubated at 37° C. for 24 hours with constant shaking speed at 300 rpm. […] PBS solution containing microbial cells alone were used as negative controls. The assay was performed in four replicates and the experiments were repeated at least two times.

[2] = system: Pseudomonas aeruginosa (Gram-negative); experiment: as above; assay type: cell-based; conditions: for MIC: Pseudomonas aeruginosa
Experimental: as §1

[3] = system: Staphylococcus aureus (ATCC 6538, Gram-positive); experiment: as above; assay type: cell-based
Experimental: as §1

[4] = system: Candida albicans (ATCC 10231, fungus); experiment: as above; assay type: cell-based; conditions: for MIC: Candida albicans, ATCC10231
Experimental: as §1

rat red blood cells = experiment: Haemolysis; assay type: cell-based
Experimental: Fresh rat red blood cells (RBCs) were diluted with PBS buffer to give an RBC stock suspension (4 vol % blood cells). A 100 μL aliquot of RBC suspension was added into a 96-well plate containing 100 μL oligomer solutions of various concentrations (ranging from 4 mg mL^−1 to 2 μg mL^−1 in serial two-fold dilutions in PBS). After 1 hour incubation at 37° C., the contents of each well were pipetted into a micro-centrifuge tube and centrifuged at 2000 rpm for 5 minutes. Aliquots (100 μL) of the supernatant were transferred to a new 96-well plate. Haemolytic activity was determined as a function of haemoglobin release by measuring OD576 of 100 μL of the supernatant using a microplate reader (TECAN). A control solution that contained only PBS was used as a reference for 0% haemolysis. Absorbance of red blood cells lysed with 0.5% Triton-X was taken as 100% haemolysis. The data were expressed as mean and S.D. of four replicates, and the tests were repeated two times.

S. aureus [5] = experiment: Resistance studies, serial passage at sub-MIC; assay type: cell-based, Staphylococcus aureus; conditions: for resistance to polymers IBN-CP1 or IBN-CP3 after growth with degradation product: media containing 2, 8, 16 and 100 μg/ml over one month
Experimental: The method was adapted from that of Yang and co-authors with modification [K. Fukushima, S. Liu, H. Wu, A. C. Engler, D. J. Coady, H. Maune, J. Pitera, A. Nelson, N. Wiradharma, S. Venkataraman, Y. Huang, W. Fan, J. Y. Ying, Y. Y. Yang, J. L. Hedrick. Nature Comm, 2013, 4:2861]. Drug resistance was induced by treating S. aureus repeatedly with degradable oligomers. First MICs of the tested oligomers were determined against S. aureus using the broth microdilution method. Then serial passaging was initiated by transferring bacterial suspension grown at the sub-MIC of the oligomers (½ of MIC at that passage) and was subjected to another MIC assay. After 24 hours incubation period, cells grown at the sub-MIC of the test compounds/antibiotics were once again transferred and assayed for MIC. The MIC against S. aureus was tested for 16 passages.
Drug-resistant behaviour of S. aureus was evaluated by recording the changes in the MIC normalized to that of the first passage. Conventional antibiotics vancomycin was used as the control.

[6] = Oligomer and polymer degradation by 1H NMR spectroscopy; assay type: physicochemical; conditions: pH 6-8 buffered solutions, ambient conditions
Experimental: Sorenson's phosphate buffer (pH, 6.0, 7.0, 8.0), tris buffer (pH 6.0, 7.0, 8.0) and sodium citrate-citric acid buffer (pH 3.0, 4.0, 5.0) were prepared in deionized water at concentrations of 100 mM, as well as 10 mM for tris buffer solution. […] A 4 mg sample of imidazolium oligomer or polymer was dissolved in deuterated buffer solution with care taken to ensure complete solution of the compounds. […] Degradation of the carbonate and ester-linked compounds was observed by disappearance of the signal of the methylene protons adjacent to the carbonate or ester functional group, and/or appearance of the signal of the methylene protons adjacent to the hydroxyl group in the degradation product.

E. coli = experiment: Agar well diffusion assay; assay type: cell-based, Escherichia coli
Experimental: (§2) The degradable oligomers were dissolved in ethanol and glycerol at 0.5% w/v concentration. Agar plates were inoculated with bacteria and 6 mm wells were cut, into which 20 μL of solution was added. Plates were inoculated at 37° C. for 24 hours and zone of inhibitions measured using a pair of vernier calipers.

S. aureus [7] = experiment: Agar well diffusion assay; assay type: cell-based, Staphylococcus aureus
Experimental: as §2

E. coli and S. aureus = experiment: SEM observation of bacteria treated with oligomers; assay type: cell-based; conditions: 4MIC, exposure two minutes
Experimental: Bacterial cells (3×10^8 CFU/mL) grown in MHB without or with the oligomers at 4MIC for 2 minutes were collected and centrifuged at 5000 rpm for 5 minutes. The precipitates were washed twice with PBS buffer. Then the samples were fixed with glutaraldehyde (2.5%) for 2 hours followed by washing with DI water. Dehydration of the samples was performed using a series of ethanol/water solution (35%, 50%, 75%, 90%, 95% and 100%). The dehydrated samples were mounted on copper tape. After drying for 2 days, the samples were further coated with platinum for imaging with JEOL JSM-7400F (Japan) field emission scanning electron microscope operated at an accelerating voltage of 5 keV.

[8] = Critical gelation concentration in alcohols; assay type: physicochemical
Experimental: Gels were prepared by weighing the imidazolium oligomers directly into 4 mL glass vials and subsequently adding a known weight or volume of the solvent. The vials containing both the imidazolium and the solvent were either heated or sonicated to aid the dissolution process. The vials were left standing over night at ambient conditions. The gel state was evaluated by the stable-to-inversion-of-a-test-tube method. The critical gelation concentration (CGC) is defined as the lowest concentration of the gelator which leads to a stable gel.

P. aeruginosa = experiment: Agar well diffusion assay; assay type: cell-based, Pseudomonas aeruginosa
Experimental: as §2

[9] = rat red blood cells, 1 hour, 37° C.
[10] = Staphylococcus aureus, ATCC6538; read-out: MIC S. aureus
[11] = 0.5% w/v solution in glycerol, compared with ethanol solution

| SMILES | MIC E. coli [1] | MIC P. aeruginosa [2] | MIC S. aureus [3] | MIC C. albicans [4] | HC10 (rat red blood cells; [9]) | further results |
| --- | --- | --- | --- | --- | --- | --- |
| CCCCCCCCn1cc[n+](Cc2ccc(Cn3cc[n+](Cc4ccc(C[n+]5ccn(Cc6ccc(CN)cc6)c5)cc4)c3)cc2)c1.[Br-].[Br-].[Br-] [F1-CH2NH2] | 16 µg/mL | 250 µg/mL | 125 µg/mL | 62 µg/mL | 1000 µg/mL |  |
| CCCCCCCCn1cc[n+](Cc2ccc(Cn3cc[n+](Cc4ccc(C[n+]5ccn(Cc6ccc(CO)cc6)c5)cc4)c3)cc2)c1.[Br-].[Br-].[Br-] [F1-CH2OH] | 2000 µg/mL | 2000 µg/mL | >2000 µg/mL | 250 µg/mL | >2000 µg/mL | hemolysis at highest concentration (rat red blood cells; 2000 μg/ml): did not induce hemolysis |
| CCCCCCCCn1cc[n+](Cc2ccc(Cn3cc[n+](Cc4ccc(C[n+]5ccn(Cc6ccc(C(=O)O)cc6)c5)cc4)c3)cc2)c1.[Br-].[Br-].[Br-] [F1-COOH] | 31 µg/mL | >2000 µg/mL | 62 µg/mL | 500 µg/mL |  |  |
| OCc1ccc(Cn2cc[n+](C/C=C/Cn3cc[n+](Cc4ccc(CO)cc4)c3)c2)cc1 [F-diol1] |  |  |  |  | >2000 µg/mL | MIC ([1]; read-out: MIC E. coli): > 2000 µg/mL; MIC ([1]; read-out: MIC EC): > 2000 µg/mL; MIC ([2]; read-out: MIC P. aeruginosa): 2000 µg/mL; MIC ([2]; read-out: MIC PA): 2000 µg/mL; MIC [3, 10]: 125 µg/mL; MIC ([3]; Staphylococcus aureus, ATCC6538; read-out: MIC SA): 12 µg/mL; MIC ([4]; read-out: MIC C. albicans): > 2000 µg/mL; MIC ([4]; read-out: MIC CA): > 2000 µg/mL; resistance to polymers IBN-CP1 or IBN-CP3 after growth with degradation product (S. aureus [5]): did not develop resistance; HC10 (rat red blood cells): >2000 ppm |
| OCc1ccc(Cn2cc[n+](Cc3ccc(C[n+]4ccn(Cc5ccc(CO)cc5)c4)cc3)c2)cc1.[Br-].[Br-] [F-diol2] | >2000 µg/mL | >2000 µg/mL | 2000 µg/mL | >2000 µg/mL | >2000 µg/mL |  |
| OCc1ccc(Cn2cc[n+](Cc3ccccc3Cn3cc[n+](Cc4ccc(CO)cc4)c3)c2)cc1 [F-diol3] |  |  |  |  | >2000 µg/mL | MIC ([1]; read-out: MIC E. coli): > 2000 µg/mL; MIC ([2]; read-out: MIC P. aeruginosa): > 4000 µg/mL; MIC [3, 10]: 500 µg/mL; MIC ([4]; read-out: MIC C. albicans): > 2000 µg/mL; resistance to polymers IBN-CP1 or IBN-CP3 after growth with degradation product (S. aureus [5]): did not develop resistance |
| OCc1ccccc1Cn1cc[n+](C/C=C/C[n+]2ccn(Cc3ccccc3CO)c2)c1.[Br-].[Br-] [F-diol4] | 1000 µg/mL | >2000 µg/mL | 250 µg/mL | >2000 µg/mL |  |  |
| OCc1ccccc1Cn1cc[n+](Cc2ccccc2C[n+]2ccn(Cc3ccccc3CO)c2)c1.[Br-].[Br-] [F-diol5] | 250 µg/mL | >2000 µg/mL | 125 µg/mL | >2000 µg/mL | >2000 µg/mL |  |
| CCCCCCCCn1cc[n+](Cc2ccc(Cn3cc[n+](Cc4ccc(C[n+]5ccn(Cc6ccc(OCn7cc[n+](Cc8ccc(Cn9cc[n+](Cc%10ccc(Cn%11cc[n+](CCCCCCCC)c%11)cc%10)c9)cc8)c7)cc6)c5)cc4)c3)cc2)c1.[Br-].[Br-].[Br-].[Br-].[Br-].[Br-] [IBN-HC8] | 8 µg/mL | 125 µg/mL | 16 µg/mL | 125 µg/mL | >2000 µg/mL | degradation in buffered solutions [6]: not significantly degraded; passage at which MIC increase was observed (S. aureus [5]; sub-MIC levels, 16 passages): 8 passage; zone of inhibition (E. coli; 0.5% w/v in ethanol): larger zones of inhibition than ethanol on its own; zone of inhibition (E. coli; [11]): comparable efficacy; zone of inhibition (S. aureus [7]; 0.5% w/v in ethanol): larger zones of inhibition than ethanol on its own; zone of inhibition (S. aureus [7]; [11]): comparable efficacy; bacterial cell walls in SEM images (E. coli and S. aureus): disrupted and subsequently dissolved; Critical gelation concentration ([8]; ethanol): 1.5 wt %; Critical gelation concentration ([8]; n-butanol): 1.0 wt %; Critical gelation concentration ([8]; n-propanol): 0.5 wt %; zone of inhibition (P. aeruginosa; 0.5% w/v in ethanol): comparable zones of inhibition compared to ethanol; zone of inhibition (P. aeruginosa; [11]): comparable efficacy |
| CN[C@H](CC(C)C)C(=O)N[C@H]1C(=O)N[C@@H](CC(N)=O)C(=O)N[C@H]2C(=O)N[C@H]3C(=O)N[C@H](C(=O)N[C@H](C(=O)O)c4cc(O)cc(O)c4-c4cc3ccc4O)[C@H](O)c3ccc(c(Cl)c3)Oc3cc2cc(c3O[C@@H]2O[C@H](CO)[C@@H](O)[C@H](O)[C@H]2O[C@H]2C[C@](C)(N)[C@H](O)[C@H](C)O2)Oc2ccc(cc2Cl)[C@H]1O [Vancomycin, reference compound] |  |  |  |  | >2000 µg/mL | MIC ([3]; Staphylococcus aureus, ATCC6538, read-out: MIC S. aureus): 2 µg/mL (≈ 1.38 µM); change of MIC value over serial passages (S. aureus [5]; sub-MIC levels, 16 passages): quadrupled; passage at which MIC increase was observed (S. aureus [5]; sub-MIC levels, 16 passages): 5 passage |
| CCn1cc(C(=O)O)c(=O)c2cc(F)c(N3CCNCC3)cc21 [norfloxacin, reference compound] |  |  |  |  |  | MIC value relative to its original value (S. aureus [5]; by the 15th passage): over 120 times |
